Data: patent publication US9259433B2, “Synergistic antiviral compositions comprising a viral attachment inhibitor, an integration inhibitor, and a proviral transcription inhibitor, and their use” (priority 2007, dated 2016)
Where two headings read alike, the source gives them in different places.

Experiments:
HIV transcription = details: cited from earlier work
wild type HIV-1 envelope = assay: HIV-based cell-cell fusion (syncytium) assay, co-culture of HeLa-CD4+ cells and CHO-WT cells; details: for antiviral entry activity: HIV entry / syncytium formation
Excerpt: Tieghemella heckelii (Sapotaceae, Th) is a large tree found in the West African rain forest. In January and February, the plant blossoms and develops ovoid fruits of 8 cm length and 7 cm diameter, which ripen in July-October. Many parts of the tree are used in traditional medicine. We have used a series of high-speed counter-current chromatography (HSCC), viral entry and infectivity assay and HIV-based cell-cell fusion assay to isolate specific HIV viral entry inhibitors from the ovoid fruits of the plants. The procedures for the isolation have been described in detail (4). Two pure saponin compounds, Arganine C (Rev 1) and Tieghemella (Gen. 1) have been isolated with the yield of 0.48% and 0.6% respectively.
In HIV infection, syncytia are the result of viral attachment and cell membrane fusion which create giant multi-nucleated cells consisting of both infected and uninfected cells. Rev. 1 and Gen. […] Rev-1 and Gen-1 are structurally identical except for one attached group at C23 (FIG. 1A). C23 glucose for Rev-1 and glucuronic acid for Gen-1 (4, 5). Their antiviral activity requires the C28 sugar chain. […] The four sugars in the substituent at the C28 position are L-arabinose, L-rhamnose, D-xylose and L-rhamnose (FIG. 1B).

HIV particles = assay: HIV-1 attachment to pre-cooled HeLa CD4+ cells, viral capsid in cell lysates; details: HeLa CD4+ cells at 4° C., 30-minute attachment, up to 20 μM
Protocol: To determine whether the two saponins act exclusively at the attachment step, target HeLa CD4^+ cells were initially pre-cooled at 4° C. before viral exposure to exclude the possibility of virus internalization. Each compound, at graded concentrations, was then mixed with HIV particles and added to target cells in cold media. After a 30-minute attachment period, the cells were profusely washed to remove unbound virus. […] H9 cells (4×10^5) were first incubated with compound and then infected with virus for one hour at 37° C. in CO2 incubator to permit virus fusion and entry. The cells were then centrifuged and washed 3 times with phosphate buffered saline (PBS) to remove the unbound virus as described previously (6,7). The viral entry was determined by p24 antigen-capture assay. For the drug effect on HIV-1 replication and infection, the culture was incubated for 8 days. Viral replication was determined by the amount of HIV-1 p24 antigen in culture supernatant after 8 days of virus infection in H9 cells using the HIV/p24 monoclonal antibody assay (8). […] Only low concentrations were used for testing to minimize the cellular toxicities of the drug.

red blood cells = assay: Hemolysis, release of hemoglobin from red blood cells; assay type: cell-based
Protocol: As such, Rev-1 and Gen-1 are both hemolytic, a property which may restrict potential use in therapy. To see whether modification of C28 sugar side chain can abolish such hemolytic effect, we acetylated the hydroxyl group of the C28 sugars with acetic anhydride. Briefly, 10 ml of pyridine and 5 ml acetic anhydride were added to a solution of pure tieghemella (Gen-1, 100 mg) in 5 ml methanol at 0° C. The solution mixture was allowed to reflux for […]. The resultant mixture was extracted with water at 20° C. as described in reference 9. The aqueous solution was washed several times with dichloromethane. The water filtrate was dried under the hood to afford oAc-Gen-1; (160 mg). We compared the hemolytic effect of Gen-1 and oAc-Gen-1 by measuring the release of hemoglobin from red blood cells in the presence of Gen.1 or o-Ac Gen.

HIV-1RTMF = assay: Drug combination study in H9 cells infected with HIV-1RTMF, p24 assay; assay type: cell-based; details: Human immunodeficiency virus 1, H9, 192 h
Excerpt: We tested drug combinations against two different cells infected with laboratory strain of HIV-1 RTMF. For these drug combinational studies, both the H9 cells and human PBMC have been used. We first tested how our inhibitors affect one specific strain of HIV which is resistant to drug against RT (HIV-1RTMF). Briefly H9 (1×10^5/ml) were infected with HIV-1RTMF strain with a multiplicity of infection of 0.1. These cells were further tested with three drugs, M522, Gen-1 and G4N, either in combination or separately (8, 10, 21B). After 4-day incubation at 37° C., H9 cells were subcultured with fresh culture medium containing appropriate concentrations 0, 1.25, 2.5, 5, 10, 20, 40 and 80 μM of each of the drugs, or of a combination of all three of the drugs, each at the indicated concentration. The inhibition for HIV-1 by these combinations of drugs was examined using p24 assay after 8 days.
(§1) Similarly, PBMC cells were isolated from a healthy blood sample and these cells were stimulated by PHA and IL-2. PBMC (5×10^6/ml) were infected with HIV-1RTMF. The cells were treated with three combinations of drugs, M522, Gen-1 and G4N. Fresh media and drugs were added after 4 days with drug concentrations 0, 1.25, 2.5, 5, 10, 20, 40 and 80 μM. The inhibition for HIV-1 by these combinations of drugs was also examined by using p24 assay after 8 days. […] In comparison, cytotoxicity for the three drugs combined to H9 cells was also analyzed using an MTT assay.

H9 cells = assay type: cell-based; details: 192 h
Protocol: A series of drug concentrations ranging from 1.25 μg/ml to 160 μg/ml were used for testing the cytotoxicity of M522 and M532 in H9 cells, using the MTT assay to determine the viability of H9 cells in culture. […] In fact, the drug-protected, HIV-infected H9 cells appeared to be morphologically identical to the uninfected control cells (6).
as §1

HIV-1 integrase = HIV-1 integrase (Human immunodeficiency virus type 1 group M subtype B, UniProt P04585); assay: HIV-1 integrase catalytic activity of 3'-joining to the target DNA; assay type: biochemical; details: read-out: IC50, 3′-joining to the target DNA
Excerpt: (§2) a. Salvia genus of Labiaceae family contains approximately 1000 species. 78 of these are distributed in different regions in China. […] An INi search was established based on an assay-guided purification procedure utilizing different concentrations of methanol, propanol, a two-layer extraction system (low salt water/butanol), and a high resolution inverted phase HPLC (Sperisorb OD S-2).

HIV = HIV entry in H9 cells; assay type: cell-based; details: compound by itself
Excerpt: as §2

reverse transcriptase = target: T1, reverse transcriptase (Human immunodeficiency virus type 1 group M subtype B, UniProt P04585); assay: Reverse transcriptase activity and viral DNA levels in infected cells; assay type: cell-based, HIV
T1 construct: endogenous in cells; host or cells: HIV-infected cells (H9 cells named in the same paragraph)
Excerpt: as §2

HIV-1 = assay: Acute HIV-1 infection of H9 cells; assay type: cell-based
Excerpt: as §2

[1] = system: HIV-1RTMF (AZT-resistant virus); assay: HIV replication in infected H9 cells, HIV/p24 monoclonal antibody assay; assay type: cell-based; details: H9 cells infected with HIV-1RTMF in the presence of drug
Protocol: The inhibitory effect of M522 and M532 against HIV replication was further examined using 5 different strains of HIV-1, drug resistant and primary isolates in the presence of a variety of drug concentrations in infected H9 cells.
A series of drug concentrations ranging from 1.25 μg/ml to 160 μg/ml were used for testing the cytotoxicity of M522 and M532 in H9 cells, using the MTT assay to determine the viability of H9 cells in culture.

[2] = target: deletion mutant HIV-1 integrase (IN^50-212) (Human immunodeficiency virus type 1 group M subtype B, UniProt P04585); assay: Disintegration assay; assay type: biochemical; details: IN^50-212 core domain; equal efficacy with wild type
Protocol: (§3) To determine whether M522 and M532 are acting against the catalytic core domain specifically, disintegration assay was tested using deletion mutant IN containing only the core domain of HIV integrase. Such deletion mutant is defective for normal integration, but it is capable of catalyzing a reversal of the forward reaction, termed “disintegration”. The disintegration reaction can be assayed by using a deletion mutant HIV-1 integrase (IN^50-212) which lacks both the amino terminal zinc binding and the carboxyl terminal DNA binding domains but remains active in this assay, whereas such truncated IN loses activity in the 3′-processing and joining (strand transfer) assays. So, disintegration assay can be used to probe the site of drug-enzyme binding.

[3] = target: wild type HIV-1 integrase (Human immunodeficiency virus type 1 group M subtype B, UniProt P04585); assay: Disintegration assay; assay type: biochemical; details: equal efficacy with deletion mutant
Protocol: as §3

[4] = system: Sp1 binding sites of the HIV long terminal repeat (LTR); details: in vitro; cited from earlier work
HSV-2 = assay: Mouse vaginal model of HSV-2 infection; assay type: in vivo, female CF-1 mice; details: 10 mM
Excerpt: P4N was also found to be quite effective.

COc1cc(C[C@H](C)[C@H](C)Cc2ccc(O)c(O)c2)ccc1O [3′-O-methyl NDGA]
inhibition of HIV transcription (HIV transcription): specifically block HIV transcription

CC1(C)CC[C@]2(C(=O)O)[C@H](O)C[C@]3(C)C(=CC[C@@H]4[C@@]5(C)C[C@H](O)[C@H](O[C@@H]6O[C@H](C(=O)O)[C@@H](O)[C@H](O)[C@H]6O)[C@@](C)(CO)[C@@H]5[C@H](O)C[C@]43C)[C@@H]2C1 [A-GEN, 16α-hydroxyprotobassic acid 3-0-β-D-glucuronopyranoside]
antiviral entry activity (wild type HIV-1 envelope): total loss of antiviral entry activity | inhibition of attachment (HIV particles): totally devoid of activity

CC1(C)CC[C@]2(C(=O)O)[C@H](O)C[C@]3(C)C(=CC[C@@H]4[C@@]5(C)C[C@H](O)[C@H](O[C@@H]6O[C@H](CO)[C@@H](O)[C@H](O)[C@H]6O)[C@@](C)(CO)[C@@H]5[C@H](O)C[C@]43C)[C@@H]2C1 [A-REV, 16α-hydroxyprotobassic 3-0-β-D-glycopyransoide]
antiviral entry activity (wild type HIV-1 envelope): total loss of antiviral entry activity

C[C@@H]1O[C@@H](O[C@@H]2[C@@H](O)[C@H](O[C@@H]3[C@@H](O)[C@@H](O)[C@H](O[C@H]4[C@H](OC(=O)[C@]56CCC(C)(C)C[C@H]5C5=CC[C@@H]7[C@@]8(C)C[C@H](O)[C@H](O[C@@H]9O[C@H](C(=O)O)[C@@H](O)[C@H](O)[C@H]9O)[C@@](C)(CO)[C@@H]8[C@H](O)C[C@@]7(C)[C@]5(C)C[C@H]6O)OC[C@H](O)[C@@H]4O)O[C@H]3C)OC[C@H]2O)[C@H](O)[C@H](O)[C@H]1O [Gen-1, Tieghemelin]
antiviral entry activity (wild type HIV-1 envelope): less potent | IC50 (wild type HIV-1 envelope; Human immunodeficiency virus 1): 17 µM | hemolytic effect (red blood cells): hemolytic | red blood cells lysed (red blood cells; 57 μM): 50% | IC50 (HIV-1RTMF): 40 µM | inhibition of attachment (HIV particles): dose-dependent inhibition of attachment

O=C(/C=C/c1ccc(O)c2c1[C@H](C(=O)O[C@H](Cc1ccc(O)c(O)c1)C(=O)O)[C@@H](c1ccc(O)c(O)c1)O2)O[C@H](Cc1ccc(O)c(O)c1)C(=O)O [M532, lithospermic acid B]
CC100 (highest concentration tested, cells remained viable) (H9 cells): 160 µg/mL | IC50 (HIV-1 integrase): 0.37 µM | prevention of HIV entry (HIV): Neither M522 nor M532 by itself prevents HIV entry | levels of intracellular strong stop and full-length viral DNA (reverse transcriptase; following drug treatment): remained unchanged | inhibition of reverse transcriptase activity (reverse transcriptase; infected cells): no inhibition of reverse transcriptase activity | IC50 (HIV-1): 6.9 µM | syncytia formation [1]: syncytia formation was prevented | inhibition of disintegration [2]: inhibited | inhibition of disintegration [3]: inhibited

CC(Cc1ccc(O)c(O)c1)C(C)Cc1ccc(O)c(O)c1 (stereo not shown) [NDGA, nordihydroguaiaretic acid, reference compound]
inhibition of HIV transcription (HIV transcription): does not inhibit HIV transcription | effect on Sp1 binding [4]: no effect on Sp1 binding

C[C@H](Cc1ccc(OCCN2CCCCC2)c(OCCN2CCCCC2)c1)[C@@H](C)Cc1ccc(OCCN2CCCCC2)c(OCCN2CCCCC2)c1 [P4N]
average scale (HSV-2): 0.19 | animals infected (HSV-2; 10 mice per group): 2 of 10 | effect on Sp1 binding [4]: disrupt Sp1 transcription factor binding

C[C@@H]1O[C@@H](O[C@@H]2[C@@H](O)[C@H](O[C@@H]3[C@@H](O)[C@@H](O)[C@H](O[C@H]4[C@H](OC(=O)[C@]56CCC(C)(C)C[C@H]5C5=CC[C@@H]7[C@@]8(C)C[C@H](O)[C@H](O[C@@H]9O[C@H](CO)[C@@H](O)[C@H](O)[C@H]9O)[C@@](C)(CO)[C@@H]8[C@H](O)C[C@@]7(C)[C@]5(C)C[C@H]6O)OC[C@H](O)[C@@H]4O)O[C@H]3C)OC[C@H]2O)[C@H](O)[C@H](O)[C@H]1O [Rev.1, arganine C]
antiviral entry activity (wild type HIV-1 envelope): strongly inhibited | IC50 (wild type HIV-1 envelope; HIV-based cell-cell fusion assay (FIG. 1), read-out: IC50): 2.8 µM | hemolytic effect (red blood cells; effective drug concentrations that blocked viral entry): hemolytic | inhibition of attachment (HIV particles): dose-dependent inhibition of attachment
